Measurements as given in patent US12048678B2, “Compounds for treating myelin related disorders” (Case Western Reserve University, priority 2018, dated 2024).

How the values were obtained:
[1] = test system: oligodendrocyte progenitor cells (OPCs), OPC-5; assay: Differentiation of OPCs to MBP+ oligodendrocytes (in vitro phenotypic screening, high-content imaging); type: cell-based, mouse; settings: for activation at 0.03 µM / activation at 0.1 µM / activation at 0.3 µM / activation at 1 µM: Mus musculus, Oligodendrocyte progenitor cell, 72 h treatment; for activation at 0.03 µM: read-out: % enhancement of MBP+ oligodendrocyte generation at 0.03 μM concentration; for activation at 0.1 µM: read-out: % enhancement of MBP+ oligodendrocyte generation at 0.1 μM concentration; for activation at 0.3 µM: read-out: % enhancement of MBP+ oligodendrocyte generation at 0.3 μM concentration; for activation at 1 µM: read-out: % enhancement of MBP+ oligodendrocyte generation at 1 μM concentration; for enhancement of oligodendrocyte formation (in words): OPC-5, FIGS. 2a-2c
Procedure: To rigorously assess effects of small molecule and genetic treatments on OPCs, all treatments were assayed in two batches of epiblast stem cell-derived OPCs, and key results were confirmed using mouse primary OPCs. OPCs were generated from two separate EpiSC lines, EpiSC5 (giving rise to OPC-5 OPCs) and 12901 (giving rise to OPC-1 OPCs). EpiSC-derived OPCs were obtained using in vitro differentiation protocols and culture conditions described previously. To ensure uniformity throughout all in vitro screening experiments, EpiSC-derived OPCs were sorted to purity by fluorescence activated cell sorting at passage five with conjugated CD 140a-APC (eBioscience, 17-1401; 1:80) and NG2-AF488 (Millipore, AB5320A4; 1:100) antibodies. Sorted batches of OPCs were expanded and frozen down in aliquots. OPCs were thawed into growth conditions for one passage before use in further assays. Cultures were regularly tested and shown to be mycoplasma free.
EpiSC-derived OPCs were grown and expanded in poly-ornithine (PO) and laminin-coated flasks with growth medium (DMEM/F12 supplemented with N2-MAX (R&D Systems), B-27 (ThermoFisher), GlutaMax (Gibco), FGF2 ([…], R&D systems, 233-FB-025) and PDGF-AA ([…], R&D systems, 233-AA-050) before harvesting for plating. The cells were seeded onto poly-D-lysine 96-well CellCarrier or CellCarrierUltra plates (PerkinElmer) coated with laminin (Sigma, L2020; 15 μg/ml) using multi-channel pipet. For the experiment, 800,000 cells/mL stock in differentiation medium (DMEM/F12 supplemented with N2-MAX and B-27) was prepared and stored on ice for 2 h. Then, 40,000 cells were seeded per well in differentiation medium and allowed to attach for 30 min before addition of drug. For dose-response testing of all molecules except sterols, a 1000× compound stock in dimethyl sulphoxide (DMSO) was added to assay plates with 0.1 μL solid pin multi-blot replicators (V & P Scientific; VP 409), resulting in a final primary screening concentration of 1×. Cells were incubated under standard conditions (37° C., 5% CO2) for 3 days and fixed with 4% paraformaldehyde (PFA) in phosphate buffered saline (PBS) for 20 min. Fixed plates were washed with PBS (200 μL per well) twice, permeabilized with 0.1% Triton X-100 and blocked with 10% donkey serum (v/v) in PBS for 40 min. Then, cells were labelled with MBP antibodies (Abcam, ab7349; 1:200) for 16 h at 4° C. followed by detection with Alexa Fluor conjugated secondary antibodies (1:500) for 45 min. Nuclei were visualized by DAPI staining (Sigma; 1 μg/ml). During washing steps, PBS was added using a multi-channel pipet and aspiration was performed using Biotek EL406 washer dispenser (Biotek) equipped with a 96-well aspiration manifold.
Plates were imaged on the Operetta High Content Imaging and Analysis system (PerkinElmer) and a set of 6 fields captured from each well resulting in an average of 1200 cells being scored per well. Analysis (PerkinElmer Harmony and Columbus software) began by identifying intact nuclei stained by DAPI; that is, those traced nuclei that were larger than 300 μm2 in surface area. Each traced nucleus region was then expanded by 50% and cross-referenced with the […] (MBP) stain to identify oligodendrocyte nuclei, and from this the percentage of oligodendrocytes was calculated.

[2] = test system: cholesterol biosynthesis in OPCs (CYP51, TM7SF2, EBP); assay: GC/MS-based sterol profiling in OPCs; type: cell-based, mouse; settings: GC-MS
Procedure: EpiSC-derived OPCs were plated at 0.5 million cells per ml in PDL- and laminin-coated six or twelve well plate with differentiation media. After 24 hours, cells were dissociated with Accutase, rinsed with saline, and cell pellets were frozen. For sterol analyses, cells were lysed in methanol (Sigma-Aldrich) with agitation for 30 minutes and cell debris removed by centrifugation at 10,000 rpm for 15 min. Cholesterol-d7 standard (25,26,26,26,27,27,27-^2H7-cholesterol, Cambridge Isotope Laboratories) was added before drying under nitrogen stream and derivatization with 55 μl of bis(trimethylsilyl)trifluoroacetamide/trimethylchlorosilane to form trimethylsilyl derivatives. Following derivatization at 60° C. for 20 minutes, 1 μl was analyzed by gas chromatography/mass spectrometry using an Agilent 5973 Network Mass Selective Detector equipped with a 6890 gas chromatograph system and a HP-5MS capillary column ([…]). Samples were injected in splitless mode and analyzed using electron impact ionization. Ion fragment peaks were integrated to calculate sterol abundance, and quantitation was relative to cholesterol-d7. The following m/z ion fragments were used to quantitate each metabolite: cholesterol-d7 (465), FF-Mas (482), cholesterol (368), zymostenol (458), zymosterol (456), desmosterol (456, 343), 7-dehydrocholesterol (456, 325), lanosterol (393), lathosterol (458), 14-dehydrozymostenol (456). Calibration curves were generated by injecting varying concentrations of sterol standards and maintaining a fixed amount of cholesterol-D7. The human glioma cell line GBM528 was a gift of Jeremy Rich (Cleveland Clinic). Human cortical spheroids were generated as described previously.

M1 muscarinic receptor = biological target: T1, M1 muscarinic receptor (Homo sapiens, UniProt P11229); assay: Muscarinic receptor antagonism assay (GeneBLAzer M1-NFAT-bla CHO-K1 cells); type: cell-based; settings: Compound 1 at 1 μM, TASIN-1 100 nM; concentration maximally effective for oligodendrocyte formation
T1 sequence (P11229 1-460): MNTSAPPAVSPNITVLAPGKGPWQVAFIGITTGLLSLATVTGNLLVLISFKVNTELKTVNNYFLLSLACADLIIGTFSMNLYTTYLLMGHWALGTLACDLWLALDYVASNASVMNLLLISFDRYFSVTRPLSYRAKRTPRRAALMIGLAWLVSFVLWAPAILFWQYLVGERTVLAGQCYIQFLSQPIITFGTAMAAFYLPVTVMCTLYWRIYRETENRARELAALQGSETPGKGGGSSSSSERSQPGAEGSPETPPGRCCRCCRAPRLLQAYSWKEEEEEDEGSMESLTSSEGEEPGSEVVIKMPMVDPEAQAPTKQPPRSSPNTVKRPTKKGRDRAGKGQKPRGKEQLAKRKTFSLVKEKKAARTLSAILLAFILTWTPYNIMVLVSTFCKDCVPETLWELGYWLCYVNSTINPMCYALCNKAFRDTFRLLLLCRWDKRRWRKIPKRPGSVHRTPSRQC
Procedure: GeneBLAzer M1-NFAT-bla CHO-K1 cells (or M3- or M5-NFAT-bla CHO-K1 cells)(ThermoFisher) were thawed into Assay Media (DMEM, 10% dialyzed FBS, 25 mM HEPES pH 7.3, 0.1 mM NEAA). 10,000 cells/well were added to a 384-well TC treated assay plate and incubated 16-24 h at 37° C. 4 μl of a 10× stock of antimuscarinic molecules was added to the plate and incubated 30 min. 4 μl of 10× control agonist Carbachol at the pre-determined EC80 concentration was added to wells containing antimuscarinic molecules. The plate was incubated 5 h and 8 μl of 1 μM Substrate+Solution D Loading Solution was added to each well and the plate was incubated 2 h at room temperature before reading on a fluorescence plate reader.

[3] = biological target: T2, estrogen receptor (T47D cells) (Homo sapiens, UniProt P03372); assay: Estrogen-dependent cell proliferation assay; type: cell-based; settings: Compound 1 at 1 μM, TASIN-1 100 nM
T2 construct: estrogen dependent growth of T47D cells; endogenous in cells; host or cells: T47D
T2 sequence (P03372 1-595): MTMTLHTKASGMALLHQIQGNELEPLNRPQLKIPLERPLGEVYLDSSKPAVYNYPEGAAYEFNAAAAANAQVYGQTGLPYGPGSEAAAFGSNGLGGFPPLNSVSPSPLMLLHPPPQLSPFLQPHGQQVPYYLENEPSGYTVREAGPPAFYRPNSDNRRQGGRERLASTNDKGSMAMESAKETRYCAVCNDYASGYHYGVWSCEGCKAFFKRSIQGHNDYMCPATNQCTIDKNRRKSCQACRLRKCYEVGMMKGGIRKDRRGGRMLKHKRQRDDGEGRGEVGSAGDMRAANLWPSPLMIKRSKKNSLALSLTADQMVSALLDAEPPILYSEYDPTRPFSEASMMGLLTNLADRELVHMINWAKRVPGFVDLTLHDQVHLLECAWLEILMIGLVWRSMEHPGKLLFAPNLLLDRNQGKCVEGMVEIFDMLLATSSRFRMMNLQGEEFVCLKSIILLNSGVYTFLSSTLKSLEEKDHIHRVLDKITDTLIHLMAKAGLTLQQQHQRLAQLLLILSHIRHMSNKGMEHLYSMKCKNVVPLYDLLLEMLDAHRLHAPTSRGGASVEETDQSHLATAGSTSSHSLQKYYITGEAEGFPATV
Procedure: Estrogen-dependent cell proliferation was measured as previously described with minor modifications. After growth in estrogen-free media (Phenol red-free RPMI supplemented with 10% charcoal stripped fetal bovine serum) for 5 days, cells were seeded at 2,500 cells/well into 96 well plates. The following day 3× drug containing media was added to triplicate wells and cells were allowed to grow for an additional 5 days at 37° C. in standard a 5% CO2 humidified incubator. Total DNA per well was measured using an adaptation of the method of Labarca and Paigen. At this time media was removed, cells were washed one time with 0.25×PBS and 100 μl of distilled water was added. […] After incubation at room temperature for 2 hours, plates were read in a SpectraMax i3 fluorescent plate reader (Molecular Devices, Sunnyvale, CA) with excitation at 360 nm and emission at 460 nm. All values were converted to microgram DNA per well using a standard curve derived from purified salmon testes DNA.

kappa opioid receptor = kappa opioid receptor (Homo sapiens, UniProt P41145); assay: k-Opioid receptor agonism assay (Tango  U2OS cells); type: cell-based; settings: Compound 1 at 1 μM, TASIN-1 100 nM, U50488 2 μM
kappa opioid receptor, sequence (P41145 whole entry): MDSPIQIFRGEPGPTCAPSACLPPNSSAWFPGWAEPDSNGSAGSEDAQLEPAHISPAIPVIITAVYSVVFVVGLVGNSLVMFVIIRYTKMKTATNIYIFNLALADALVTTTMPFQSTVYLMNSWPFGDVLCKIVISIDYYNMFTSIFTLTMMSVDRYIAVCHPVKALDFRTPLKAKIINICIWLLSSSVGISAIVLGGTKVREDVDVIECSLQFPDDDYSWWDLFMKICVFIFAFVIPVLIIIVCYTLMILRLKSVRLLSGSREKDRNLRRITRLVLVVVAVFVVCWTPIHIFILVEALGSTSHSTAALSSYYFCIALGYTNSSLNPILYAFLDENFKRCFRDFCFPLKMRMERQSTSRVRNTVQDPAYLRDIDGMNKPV

| SMILES | activation at 0.03 µM [1] | activation at 0.1 µM [1] | activation at 0.3 µM [1] | activation at 1 µM [1] | enhancement of oligodendrocyte formation (in words) [1] | 14-dehydrozymostenol accumulation in OPCs (indicative of TM7SF2 inhibition) ([2]; 1 μM) | effect in cell-based assay for the M1 muscarinic receptor (M1 muscarinic receptor) | effect in cell-based assay for the estrogen receptor (estrogen dependent growth of T47D cells) [3] | effect in cell-based assay for the kappa opioid receptor (kappa opioid receptor) | EC50 for enhancing oligodendrocyte formation ([1]; wide concentration range) | cholesterol biosynthesis in OPCs ([2]; 10 μM screening dose) | lanosterol accumulation in OPCs (indicative of CYP51 inhibition) ([2]; 10 μM) |
| --- | --- | --- | --- | --- | --- | --- | --- | --- | --- | --- | --- | --- |
| CSc1ccc(CN2CCCCC2CO)cc1 (stereo not drawn) [Compound 14] | 20 to 30% | 30 to 40% | 30 to 40% | 30 to 40% | – | – | – | – | – | – | – | – |
| OC1CCCN(Cc2ccc(-c3ccccc3)cc2)C1 (stereo not drawn) [Compound 8] | 20 to 30% | 20 to 30% | 30 to 40% | 30 to 40% | – | – | – | – | – | – | – | – |
| CN(C(=O)c1ccc(-c2ccccc2)cc1)[C@@H]1Cc2ccc(CN3CCCCC3CO)cc2C1 (stereo partly drawn) [Compound 10] | 20 to 30% | 30 to 40% | > 40% | > 40% | strongly promoted oligodendrocyte formation | accumulated 14-dehydrozymostenol | – | – | – | – | – | – |
| Clc1ccc(CN2CCCCCCC2)cc1Cl [Compound 17] | ≤ 20% | ≤ 20% | ≤ 20% | ≤ 20% | – | – | – | – | – | – | – | – |
| OCCN1CCN(Cc2ccc(-c3ccccc3)cc2)CC1 [Compound 12] | ≤ 20% | 20 to 30% | 30 to 40% | > 40% | – | – | – | – | – | – | – | – |
| c1ccc(-c2ccc(CN3CCCCCC3)cc2)cc1 [Compound 3] | 20 to 30% | 20 to 30% | 30 to 40% | > 40% | – | – | – | – | – | – | – | – |
| c1ccc(-c2ccc(CN3CCSCC3)cc2)cc1 [Compound 7] | ≤ 20% | 30 to 40% | 20 to 30% | 30 to 40% | – | – | – | – | – | – | – | – |
| COc1ccc(S(=O)(=O)N2CCC(N3CCC(C)CC3)CC2)cc1 [TASINI, TASIN-1, reference compound] | – | – | – | – | – | – | little affinity | little affinity | little affinity | – | – | – |
| OC1CCN(Cc2ccc(-c3ccccc3)cc2)CC1 [Compound 16] | 20 to 30% | 20 to 30% | 20 to 30% | 30 to 40% | – | – | – | – | – | – | – | – |
| Clc1ccc(CN2CCCCCC2)cc1Cl [Compound 15] | ≤ 20% | 20 to 30% | 30 to 40% | 30 to 40% | – | – | – | – | – | – | – | – |
| CCN1CCN(Cc2ccc(-c3ccccc3)cc2)CC1 [Compound 2] | 20 to 30% | 30 to 40% | > 40% | > 40% | – | – | – | – | – | – | – | – |
| OCC1CCCN(Cc2ccc(-c3ccccc3)cc2)C1 (stereo not drawn) [Compound 9] | 20 to 30% | 20 to 30% | 30 to 40% | 30 to 40% | – | – | – | – | – | – | – | – |
| Clc1ccc(CN2CCN(Cc3ccccc3)CC2)cc1Cl [Compound 5] | ≤ 20% | 20 to 30% | 30 to 40% | 30 to 40% | – | – | – | – | – | – | – | – |
| OCC1CCCCN1Cc1ccc(Cl)c(Cl)c1 (stereo not drawn) [Compound 11] | 20 to 30% | 30 to 40% | > 40% | > 40% | strongly promoted oligodendrocyte formation | – | – | – | – | – | – | – |
| c1ccc(-c2ccc(CNCCc3ccc(CN4CCCCC4)cc3)cc2)cc1 [Compound 18] | 20 to 30% | 20 to 30% | 20 to 30% | 30 to 40% | – | – | – | – | – | – | – | – |
| CCCCOc1ccc(CN2CCCCC2CC)cc1 (stereo not drawn) [Compound 4] | ≤ 20% | 20 to 30% | ≤ 20% | 20 to 30% | – | – | – | – | – | – | – | – |
| CN1CCN(Cc2ccc(-c3ccccc3)cc2)CC1 [Compound 6] | ≤ 20% | 20 to 30% | 30 to 40% | 30 to 40% | – | – | – | – | – | – | – | – |
| NC(=O)C1CCN(Cc2ccc(-c3ccccc3)cc2)CC1 [Compound 13] | 20 to 30% | 20 to 30% | 30 to 40% | > 40% | – | – | – | – | – | – | – | – |
| CC(C)C(=O)NC(Cc1ccc(OCc2ccccc2)cc1)C(=O)NCCCN(C)c1ccccc1 (stereo not drawn) [Compound 19] | 20 to 30% | 20 to 30% | 30 to 40% | 30 to 40% | – | – | – | – | – | mid-nanomolar range | inhibition of cholesterol biosynthesis | accumulation of the 8,9-unsaturated sterol lanosterol |
